Read-outs that look alike come from different tables or passages of the source. Marks after values point to notes of the source that are not given here.

Results on 4 molecules are retold here after publication PMC5773651, “Customised in vitro model to detect human metabolism-dependent idiosyncratic drug-induced liver injury” (Archives of Toxicology, 2017).

The test system of data set [1] is HepG2 cells transduced with AdCYP2E1. The data set is described as follows: Cell viability (PI), IC50, AdCYP2E1-HepG2. The class given is cell-based. The note with it: Homo sapiens, unit inferred, tested range in µM. As for the experimental part:
(§1) For subculturing purposes, cells were detached by treatment with 0.25% trypsin/0.02% EDTA at 37 °C. For the adenovirus infection studies, cells were seeded in 96-well plates (5000 cells/well) and adenovirus-containing medium was added 48 h later. After 24 h, cells were transferred to the adenovirus-free medium and cultured for an additional 24-h period prior to the incubations performed with the test chemicals. To optimise the expression of the functional enzymes in the adenovirus-transduced HepG2 (Ad-HepG2) cells, different doses (MOI, multiplicity of infection, defined as plaque formation units per cell) of each adenovirus were tested.
(§2) The drugs included in the study were chosen based on previous information about their hepatotoxicity. Information on the potential mechanisms implicated in the toxicity of each compound and the major enzymes involved in their metabolism is summarised in Table 1. HepG2 or Ad-HepG2 (48 h post-infection) cells were exposed for 24 h to eight concentrations of the tested compounds. Each experimental condition was repeated independently three times (with three wells measured each time). The stock solutions of compounds were prepared in DMSO and were conveniently diluted in the culture medium to obtain the desired final concentrations. The final DMSO concentration in the culture medium was 0.5% (v/v), and the control cultures were treated with the same amount of solvent.
(§3) Following treatments, cells were simultaneously loaded with several fluorescent dyes to measure multiple biomarkers of cell toxicity. […] Information about the probes is summarised in Supplementary Table S2.
(§4) After incubating with dyes, cells were imaged by the Scan^R system (Olympus, Germany). Dyes were excited, and their fluorescence was monitored at the excitation and emission wavelengths at appropriate filter settings. The collected images were analysed using the Scan^R analysis module, which allows the simultaneous quantification of subcellular structures that are stained by different fluorescent probes.

Data set [2] shares this test system. The note with it: human, 24 h. As for the experimental part:
as §1, §2, §3, §4

Data set [3] deals with HepG2 cells. The note with it: human, 24 h. As for the experimental part: as §1, §2, §3, §4
In data set [4] the test system is HepG2 cells transduced with AdGSTM1. The note with it: human, 24 h. As for the experimental part:
as §1, §2, §3, §4

The subject of data set [5] is HepG2 cells co-transduced with AdCYP2E1 and AdCYP1A2. The data set is described as follows: HCS hepatotoxicity assay (MEC, TR), AdCYP2E1 + AdCYP1A2 HepG2. The class given is cell-based, human. Particulars: 24 h; for MEC Apoptosis / MEC Calcium / MEC MMP / MEC Mitochondrial superoxide / MEC ROS: unit inferred, tested range in mM. As to the method: as §1, §2, §3, §4

For data set [6] the following is noted: cited from earlier work; for Bioactivation / Enzyme: major enzyme(s) involved in the bioactivation (denoted as *) or detoxification of the drug: previous information; for Toxicity (mechanisms of toxicity): ref Ashrafian et al. [2007], Donato et al. [2009], Fromenty and Pessayre [1997], Rolo et al. [2000], Tolosa et al. [2012b]; for DILI category: ref Gustafsson et al. ([2014]).

Data set [7] has as its system HepG2 cells co-transduced with AdCYP2E1, CYP1A2 and AdGSTM1. Put plainly: HCS hepatotoxicity assay (MEC, TR), AdCYP2E1 + AdCYP1A2 + AdGSTM1 HepG2. Particulars: 24 h; for MEC Apoptosis / MEC Calcium / MEC MMP / MEC Mitochondrial superoxide / MEC ROS: unit inferred, tested range in mM. The class given is cell-based, human. As for the experimental part: as §1, §2, §3, §4

In data set [8] the test system is HepG2 cells. Put plainly: Cell viability (PI), IC50, control HepG2 cells. It is filed as cell-based. The note with it: Homo sapiens; control non-transduced HepG2; 24 h; unit inferred, tested range in µM; read-out: IC50 (cell viability), C.
In data set [9] the test system is HepG2 cells transduced with AdCYP2B6. Put plainly: Cell viability (PI), IC50, AdCYP2B6-HepG2. The class given is cell-based. The note with it: Homo sapiens, unit inferred, tested range in µM. As to the method:
as §1, §2, §3, §4

The conditions of data set [10]: ref Atienzar et al. ([2014]), Garside et al. ([2014]), Tolosa et al. ([2012b]); cited from earlier work.
In data set [11] the test system is HepG2 cells transduced with AdCYP2C9. Put plainly: Cell viability (PI), IC50, AdCYP2C9-HepG2. It is filed as cell-based. The note with it: Homo sapiens, unit inferred, tested range in µM.
The test system of data set [12] is HepG2 cells transduced with AdCYP2B6. The data set is described as follows: HCS hepatotoxicity assay (MEC, TR), AdCYP2B6-HepG2. The class given is cell-based, human. The note with it: 24 h, unit inferred, tested range in mM. As for the experimental part:
as §1
The drugs included in the study were chosen based on previous information about their hepatotoxicity. […] Each experimental condition was repeated independently three times (with three wells measured each time). […]
as §4

The test system of data set [13] is HepG2 cells co-transduced with AdCYP2E1 and AdGSTM1. The data set is described as follows: HCS hepatotoxicity assay (MEC, TR), AdCYP2E1 + AdGSTM1 HepG2. It is filed as cell-based, human. The note with it: CYP2E1-10X + GSTM1, 24 h. As to the method: as §1, §2, §3, §4
In the next data set the test system is Ad-HepG2 and HepG2 cells. It is filed as cell-based, human. The source says:
Finally, we explored the toxicity of the amoxycillin/clavulanate combination, one of the most commonly implicated agents in severe idiosyncratic liver injury. Unlike other studied drugs, the hepatotoxicity of amoxycillin/clavulanate has not been related to CYP metabolism.

Where [14] appears, read: ADV CYP2E1 x1, 24 h, read-out: IC50 (cell viability), ADV dose x1.
The mark [15] stands for this setting: ADV CYP2E1 x4, 24 h, read-out: IC50 (cell viability), ADV dose x4.
Setting [16] is: ADV CYP2E1 x10, 24 h, read-out: IC50 (cell viability), ADV dose x10.
Where [17] appears, read: unit inferred, tested range in mM.
[18] abbreviates: unit not given, tested range in mM.

One may read the IC50 as the point on the concentration scale where inhibition reaches its midpoint. With `CC(=O)Nc1ccc(O)cc1` [Acetaminophen], the IC50 in data set [1] (setting [14]) was more than 15000 µM; in [1] (setting [15]), more than 15000 µM; in data set [1] (setting [16]), 10600 µM; in the data set on HepG2 cells [8] it was more than 15000 µM. In addition, the “concentrations needed to significantly alter ROS generation and calcium levels” value in data set [2] lay in the range of 4000 to 6000 µM. Also, the MEC Apoptosis came to 4 µM in the data set with HepG2 cells [3]; 4 µM in [4]; 1 mM in [5] (CYP2E1-1X + CYP1A2-1X); 0.5 mM in [5] (CYP2E1-4X + CYP1A2-4X); 4 mM in [7] (CYP2E1-1X + CYP1A2-1X + GSTM1); 1 mM in data set [7] (CYP2E1-4X + CYP1A2-4X + GSTM1). Moreover, the “MEC Calcium” value with HepG2 cells [3] was 6; in data set [4] it was 10; in [5] (CYP2E1-1X + CYP1A2-1X) it was 6 mM; in data set [5] (CYP2E1-4X + CYP1A2-4X), 0.5 mM; in data set [7] (CYP2E1-1X + CYP1A2-1X + GSTM1) it was 15 mM; in data set [7] (CYP2E1-4X + CYP1A2-4X + GSTM1) it was 6 mM. Also, the “MEC MMP” value with HepG2 cells [3] came out at 15; in data set [4], 15; in data set [5] (CYP2E1-1X + CYP1A2-1X), 10 mM; in data set [5] (CYP2E1-4X + CYP1A2-4X), 6 mM; in data set [7] (CYP2E1-1X + CYP1A2-1X + GSTM1) it was 15 mM; in data set [7] (CYP2E1-4X + CYP1A2-4X + GSTM1) it was 10 mM. Also, the “MEC Mitochondrial superoxide” value with HepG2 cells [3] is 4; in [4], 6; in data set [5] (CYP2E1-1X + CYP1A2-1X), 1 mM; in data set [5] (CYP2E1-4X + CYP1A2-4X), 0.5 mM; in data set [7] (CYP2E1-1X + CYP1A2-1X + GSTM1), 6 mM; in data set [7] (CYP2E1-4X + CYP1A2-4X + GSTM1), 4 mM. Besides, the “MEC ROS” value in the data set with HepG2 cells [3] came to 10; in data set [4] it was 15; in data set [5] (CYP2E1-1X + CYP1A2-1X), 6 mM; in data set [5] (CYP2E1-4X + CYP1A2-4X), 0.5 mM; in data set [7] (CYP2E1-1X + CYP1A2-1X + GSTM1), 15 mM; in data set [7] (CYP2E1-4X + CYP1A2-4X + GSTM1) it was 6 mM. Also, the TR in the data set on HepG2 cells [3] amounted to 3.5; in data set [4], 3.5; in data set [5] (CYP2E1-4X + CYP1A2-4X, TR = 100 x Cmax/lowest MEC), 27.8; in [7] (CYP2E1-1X + CYP1A2-1X + GSTM1, TR = 100 x Cmax/lowest MEC) it was 3.5. Moreover, the “concentration that induced significant changes in the ROS generation and calcium levels” value in data set [5] (cells co-transduced with AdCYP2E1 and AdCYP1A2, intermediate doses of adenoviruses) stood at 500 µM. Besides, the Bioactivation result in data set [6] is reported as “Yes”. Also, the “Enzyme: major enzyme(s) involved in the bioactivation (denoted as *) or detoxification of the drug” value (“Enzyme: major enzyme(s) involved” below) in data set [6] is recorded as “CYP2E1* (CYP1A2*, CYP3A4*) GST”. Moreover, the “Toxicity (mechanisms of toxicity)” value in [6] is “OS, AP”. Further, the DILI category result in [6] is “DILI reports”.

By Cmax is commonly meant the highest concentration seen after dosing. Regarding `CCCC(CCC)C(=O)O` [Valproic acid], in the data set with HepG2 cells [3], the “MEC Lipids” value came to 6. Further, the IC50 in data set [9] (ADV CYP2B6 x1, 24 h, read-out: IC50 (cell viability), ADV dose x1) is 13300 µM; in data set [9] (ADV CYP2B6 x4, 24 h, read-out: IC50 (cell viability), ADV dose x4), 8600 µM; in data set [9] (ADV CYP2B6 x10, 24 h, read-out: IC50 (cell viability), ADV dose x10), 8700 µM; in data set [11] (ADV CYP2C99 x1, 24 h, read-out: IC50 (cell viability), ADV dose x1), 14400 µM; in [11] (ADV CYP2C99 x4, 24 h, read-out: IC50 (cell viability), ADV dose x4) it was 16000 µM; in data set [11] (ADV CYP2C99 x10, 24 h, read-out: IC50 (cell viability), ADV dose x10) it was 10100 µM. Also, in the data set on HepG2 cells [8], the IC50 amounted to 14800 µM. The Cmax in data set [10] was 166 µM. In data set [6], the Bioactivation entry is listed as “Yes”. In addition, the “Enzyme: major enzyme(s) involved” value in data set [6] is recorded as “CYP2B6*, CYP2C9* (CYP2E1*, CYP2A6*)”. The “Toxicity (mechanisms of toxicity)” value in [6] is “MI, OS, ST”. The MEC ROS amounted to 10 mM in [12] (CYP2B6-4X) and 8 mM in data set [12] (CYP2B6-10X).

For the molecule `NNC(=O)c1ccncc1` [Isoniazid], the figures for the TR (in [13] (TR = 100 x Cmax/lowest MEC); with HepG2 cells [3]; in [4]) were 0.38, 0.25 and 0.25, respectively. In addition, the MEC Calcium in data set [13] (setting [17]) is 20 mM; in the data set on HepG2 cells [3] it was 30; in data set [4], more than 50. Moreover, the MEC Mitochondrial superoxide is 30 mM in [13] (setting [17]), 30 with HepG2 cells [3] and more than 50 in [4]. Moreover, the results for the MEC ROS (in data set [13] (setting [17]); with HepG2 cells [3]; in data set [4]) were more than 50 mM, more than 50 and more than 50, respectively. The “MEC Apoptosis” value is 30 in [13] (setting [18]), 30 µM in the data set on HepG2 cells [3] and 30 µM in [4]. Besides, the “MEC MMP” value (in data set [13] (setting [18]); in data set [2]; in the data set on HepG2 cells [3]; in data set [4]) was more than 50 throughout. Also, the IC50 in data set [1] (setting [14]) came out at 52900 µM; in data set [1] (setting [15]), 44500 µM; in [1] (setting [16]) it was 46600 µM; in the data set on HepG2 cells [8] it was 61500 µM. Also, in data set [6], the Bioactivation result is recorded as “Yes”. Besides, in data set [6], the “Enzyme: major enzyme(s) involved” value is given as “CYP2E1*, GSTM1, NAT2”. In addition, the “Toxicity (mechanisms of toxicity)” value in [6] was “MI, OS, AP”. Besides, the DILI category entry in data set [6] was “Severe”.

On to Amoxicillin/clavulanate, for which the ROS production result in the data set on Ad-HepG2 and HepG2 cells is on record as “significant increase”.
